The results in this text go back to patent US7994187B2, “HIV inhibiting 3,4-dihydro-imidazo[4,5-B]pyridin-5-ones” (Tibotec Pharmaceuticals Ltd., priority 2006, dated 2011).

In general, EC50 refers to the midpoint of the concentration-response curve. A low value points to greater potency. What is called CC50 is the concentration at which the toxic effect on the cells reaches its halfway point. Read a high CC50 as better tolerance by the cells.

Data set [1] has as its system wild-type HIV-IIIB strain. Briefly: Anti-viral activity in cellular assay, MT4 LTR-EGFP cells (GFP fluorescence). The conditions noted are these: Human immunodeficiency virus 1, 72 h, pEC50 = -log10(EC50), measured three days after infection. It is filed as cell-based, HIV-1. The procedure: The compounds of the present invention were tested for anti-viral activity in a cellular assay, which was performed according to the following procedure.
The human T-cell line MT4 is engineered with Green Fluorescent Protein (GFP) and an HIV-specific promoter, HIV-1 long terminal repeat (LTR). This cell line is designated MT4 LTR-EGFP, and can be used for the in vitro evaluation of anti-HIV activity of investigational compounds. In HIV-1 infected cells, the Tat protein is produced which upregulates the LTR promotor and finally leads to stimulation of the GFP reporter production, allowing to measure ongoing HIV-infection fluorometrically.
(§1) Effective concentration values such as 50% effective concentration (EC50) can be determined and are usually expressed in μM. An EC50 value is defined as the concentration of test compound that reduces the fluorescence of HIV-infected cells by 50%. The 50% cytotoxic concentration (CC50 in μM) is defined as the concentration of test compound that reduces fluorescence of the mock-infected cells by 50%. The ratio of CC50 to EC50 is defined as the selectivity index (SI) and is an indication of the selectivity of the anti-HIV activity of the inhibitor. The ultimate monitoring of HIV-1 infection and cytotoxicity is done using a scanning microscope. Image analysis allows very sensitive detection of viral infection. Measurements are done before cell necrosis, which usually takes place about five days after infection, in particular measurements are performed three days after infection.
The following Table 6 lists pEC50 values against wild-type HIV-IIIB strain as well as pEC50 values for a selected number of compounds of the invention. A pEC50 value corresponds to −log10(EC50). Listed are compounds having a pEC50 value of at least 5.00.

Data set [2] in a line: Cytotoxicity in mock-infected MT4 CMV-EGFP cells (GFP fluorescence). The format is cell-based. The note with it: human, 50% cytotoxic concentration as negative log.
From the text: Analogously, MT4 cells are engineered with GFP and the constitutional cytomegalovirus (CMV) promotor. This cell line is designated MT4 CMV-EGFP, and can be used for the in vitro evaluation of cytotoxicity of investigational compounds. In this cell line, GFP levels are comparably to those of infected MT4 LTR-EGFP cells. Cytotoxic investigational compounds reduce GFP levels of mock-infected MT4 CMV-EGFP cells.
as §1

In turn, `O=c1c2sccc2c2nc3ccccn3c2n1-c1ccc([N+](=O)[O-])cc1` [Compound 103, 5-(4-nitrophenyl)-pyrido[2′,1′:2,3]imidazo[4,5-b]thieno[3,2-d]pyridin-4(5H)-one] showed an EC50 in data set [1] of 1 µM. The CC50 at 3 days in data set [2] is greater than 32.4 µM.
The compound `CCc1ccc(-n2c(=O)c3ccccc3c3nc4ccccn4c32)cn1` [Compound 27, 6-(6-ethyl-pyridin-3-yl)-pyrido[2′,1′:2,3]imidazo[4,5-c]-isoquinolin-5(6H)-one] gave an EC50 in data set [1] of 5.75 µM. Besides, the CC50 at 3 days in data set [2] was 26.3 µM.
With `O=c1c2ccccc2c2nc3cc(CO)ccn3c2n1-c1ccc([N+](=O)[O-])cc1` [Compound 9], in data set [1], the EC50 was 0.724 µM. For the same compound, the CC50 at 3 days in data set [2] is greater than 32.4 µM.
`Nc1ccc2nc3c4ccccc4c(=O)n(-c4ccc(Cl)nc4)c3n2c1` [Compound 53, 9-amino-6-(6-chloro-pyridin-3-yl)-pyrido[2′,1′:2,3]imidazo-[4,5-c]isoquinolin-5(6H)-one] had an EC50 in data set [1] of 1.66 µM. In data set [2], the CC50 at 3 days is 4.57 µM.
On the same counts, the results for `O=c1c2ccccc2c2nc3ccc(O)cn3c2n1-c1ccc([N+](=O)[O-])cc1` [Compound 10, 9-hydroxy-6-(4-nitrophenyl)-pyrido[2′,1′:2,3]imidazo[4,5-c]isoquinolin-5(6H)-one] are 0.155 µM and greater than 32.4 µM.
With `Nc1ccc2nc3c4ccccc4c(=O)n(-c4ccc([N+](=O)[O-])cc4)c3n2n1` [Compound 129, 9-amino-6-(4-nitrophenyl)-pyridazo-[3′,2′:2,3]imidazo[4,5-c]isoquinolin-5(6H)-one], a half-maximal effect in data set [1] (EC50) was put at 0.166 µM. Also, the CC50 at 3 days in data set [2] was greater than 32.4 µM.
